The values below are quoted from earlier work in PubChem BioAssay AID1259409 (Chemical Carcinogenesis Research Information System (CCRIS), 2018).

Molecules are shown by their SMILES. “And” between values parts separate entries of the source, which are not always exact repeats. Identical values can stand only once.

In the data set the test system is rodent chemically induced tumor inhibition, incidence and multiplicity. Briefly: CCRIS tumor inhibitor studies. Particulars: Dose [Inhibitor]: 0.

`N#C[Se]Cc1ccc(C[Se]C#N)cc1`: the “tumour outcome (control, treated, inhibition, significance)” value (Carcinogen: 4(Methylnitrosamino)-1-(3-pyridyl)-1-butanone (NNK) (62339-61-1), 10 ppm as Se in diet, wks 6 to 32, study duration 26 wk, Route [Inhibitor]: Oral, Species: Mouse, Strain/Sex: A/J / Female, Target Tissue: Type of Lesion: Lung: Tumor, Dose [Carcinogen]: 3 umol once a wk for 8 wk beginning at wk 6 (total of 24 umol/mouse), study duration 26 wk) was 90%, 20% (78% reduction), p<0.001 and 96%, 68% (30% reduction), p<0.01; the “tumour outcome (control, treated, inhibition, significance)” value (Carcinogen: 4-(METHYLNITROSAMINO)-1-(3-PYRIDYL)-1-BUTANONE, 64091-91-4, 0.0005% IN DIET FOR 17 WK BEGINNING 1 WK PRIOR TO CARCINOGEN DOSE (STUDY DURATION: 17 WK), Route [Inhibitor]: ORAL, Species: MOUSE, Strain/Sex: STRAIN-A/FEMALE, Target Tissue: Type of Lesion: LUNG: ADENOMA, Dose [Carcinogen]: 10 UMOL IN 0.1 ML SALINE ONCE, Promoter: NONE USED) is reported as 100%, 100%, 0%, not significant; the “tumour outcome (control, treated, inhibition, significance)” value (Carcinogen: 4-(METHYLNITROSAMINO)-1-(3-PYRIDYL)-1-BUTANONE, 64091-91-4, 5 PPM IN DIET BEGINNING 1 WK PRIOR TO CARCINOGEN TREATMENT AND CONTINUING FOR 16 WK POST CARCINOGEN TREATMENT (STUDY, Route [Inhibitor]: ORAL, Species: MOUSE, Strain/Sex: STRAIN-A/FEMALE, Target Tissue: Type of Lesion: LUNG: ADENOMA, Dose [Carcinogen]: 10 UMOL IN 0.1 ML SALINE, Promoter: NONE USED) is listed as 100%, 100%, 0%, not significant; the “tumour outcome (control, treated, inhibition, significance)” value (Carcinogen: 4-(METHYLNITROSAMINO)-1-(3-PYRIDYL)-1-BUTANONE, 64091-91-4, 7.5 PPM IN DIET FOR 3 WK BEGINNING 1 WK PRIOR TO CARCINOGEN DOSE (STUDY DURATION: 18 WK), Route [Inhibitor]: ORAL, Species: MOUSE, Strain/Sex: STRAIN-A/FEMALE, Target Tissue: Type of Lesion: LUNG: TUMOR, Dose [Carcinogen]: 10 UMOL IN 0.1 ML SALINE ONCE, Promoter: NONE USED) is 100%, 80%, 20%, not significant; the “tumour outcome (control, treated, inhibition, significance)” value (Carcinogen: 4-(METHYLNITROSAMINO)-1-(3-PYRIDYL)-1-BUTANONE, 64091-91-4, 7.5 PPM IN DIET FOR 15 WK BEGINNING 1 WK POST CARCINOGEN DOSE (STUDY DURATION: 18 WK), Route [Inhibitor]: ORAL, Species: MOUSE, Strain/Sex: STRAIN-A/FEMALE, Target Tissue: Type of Lesion: LUNG: TUMOR, Dose [Carcinogen]: 10 UMOL IN 0.1 ML SALINE ONCE, Promoter: NONE USED) was 100%, 96%, 4%, not significant; the “tumour outcome (control, treated, inhibition, significance)” value (Carcinogen: 4-(METHYLNITROSAMINO)-1-(3-PYRIDYL)-1-BUTANONE, 64091-91-4, 10 PPM IN DIET BEGINNING 1 WK PRIOR TO CARCINOGEN TREATMENT AND CONTINUING FOR 16 WK POST CARCINOGEN TREATMENT (STUDY, Route [Inhibitor]: ORAL, Species: MOUSE, Strain/Sex: STRAIN-A/FEMALE, Target Tissue: Type of Lesion: LUNG: ADENOMA, Dose [Carcinogen]: 10 UMOL IN 0.1 ML SALINE, Promoter: NONE USED) was 100%, 90%, 10%, not significant. Moreover, the “tumour outcome (control, treated, inhibition, significance)” value is 100%, 85%, 15%, not significant (Carcinogen: 4-(METHYLNITROSAMINO)-1-(3-PYRIDYL)-1-BUTANONE, 64091-91-4, 15 PPM IN DIET BEGINNING 1 WK PRIOR TO CARCINOGEN TREATMENT AND CONTINUING FOR 16 WK POST CARCINOGEN TREATMENT (STUDY, Route [Inhibitor]: ORAL, Species: MOUSE, Strain/Sex: STRAIN-A/FEMALE, Target Tissue: Type of Lesion: LUNG: ADENOMA, Dose [Carcinogen]: 10 UMOL IN 0.1 ML SALINE, Promoter: NONE USED); 100%, 80%, 20%, not significant (Carcinogen: 4-(METHYLNITROSAMINO)-1-(3-PYRIDYL)-1-BUTANONE, 64091-91-4, 15 PPM IN DIET FOR 3 WK BEGINNING 2 WK PRIOR TO CARCINOGEN DOSE (STUDY DURATION: 18 WK), Route [Inhibitor]: ORAL, Species: MOUSE, Strain/Sex: STRAIN-A/FEMALE, Target Tissue: Type of Lesion: LUNG: TUMOR, Dose [Carcinogen]: 10 UMOL IN 0.1 ML SALINE ONCE, Promoter: NONE USED); 100%, 96%, 4%, not significant (Carcinogen: 4-(METHYLNITROSAMINO)-1-(3-PYRIDYL)-1-BUTANONE, 64091-91-4, 15 PPM IN DIET FOR 15 WK BEGINNING 1 WK POST CARCINOGEN DOSE (STUDY DURATION: 18 WK), Route [Inhibitor]: ORAL, Species: MOUSE, Strain/Sex: STRAIN-A/FEMALE, Target Tissue: Type of Lesion: LUNG: TUMOR, Dose [Carcinogen]: 10 UMOL IN 0.1 ML SALINE ONCE, Promoter: NONE USED); 88%, 72%, 18%, not significant (Carcinogen: 7,12-DIMETHYLBENZ[A]ANTHRACENE, 57-97-6, 2.5 PPM (AS SELENIUM) IN DIET BEGINNING 2 WK PRIOR TO CARCINOGEN DOSE AND CONTINUING FOR DURATION OF STUDY (STUDY DUR, Route [Inhibitor]: ORAL, Species: RAT, Strain/Sex: SPRAGUE-DAWLEY/FEMALE, Target Tissue: Type of Lesion: MAMMARY GLAND: ADENOCARCINOMA, Dose [Carcinogen]: 10 MG ONCE AT 55 D OF AGE, Promoter: NONE USED); 22/25 (88%), 17/25 (68%), 23%, not significant (Carcinogen: 7,12-DIMETHYLBENZ[A]ANTHRACENE, 57-97-6, 5 PPM (AS SELENIUM) IN DIET BEGINNING 1 WK POST CARCINOGEN DOSE AND CONTINUING FOR 25 WK (STUDY DURATION: 25 WK), Route [Inhibitor]: ORAL, Species: RAT, Strain/Sex: SPRAGUE-DAWLEY/FEMALE, Target Tissue: Type of Lesion: MAMMARY GLAND: ADENOCARCINOMA, Dose [Carcinogen]: 10 MG ONCE AT 55 D OF AGE, Promoter: NONE USED).
